For this test, the target named is T1, murine STING isoform (Mus musculus, UniProt Q3TBT3).
T1 construct: endogenous in cells
T1 sequence (Q3TBT3 1-378): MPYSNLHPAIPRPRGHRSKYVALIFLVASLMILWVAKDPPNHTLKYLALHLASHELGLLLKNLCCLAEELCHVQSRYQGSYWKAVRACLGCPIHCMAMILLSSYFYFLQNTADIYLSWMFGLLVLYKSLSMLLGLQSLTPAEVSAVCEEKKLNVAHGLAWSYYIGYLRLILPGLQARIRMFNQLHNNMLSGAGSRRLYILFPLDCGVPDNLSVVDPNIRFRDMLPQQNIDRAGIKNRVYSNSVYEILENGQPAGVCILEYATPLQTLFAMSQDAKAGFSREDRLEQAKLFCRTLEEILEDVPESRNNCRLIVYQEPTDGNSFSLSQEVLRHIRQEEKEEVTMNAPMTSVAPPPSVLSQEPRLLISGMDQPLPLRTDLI
Put plainly: Immunoblots of phosphorylated p65, RelB and IRF3 in C-176 treated tumor cells. Format: cell-based. As to the method:
Immunoblotting: Cells were pelleted and lysed using RIPA buffer. Protein concentration was determined using BCA protein assay and 20-30 μg total protein were loaded in each lane. Proteins were separated by gradient SDS-PAGE and transferred to PVDF or nitrocellulose membranes. See Table 2 for antibody information. Membranes were imaged using the LI-COR Odyssey software. Relative STING protein levels were quantified by measuring band intensities on immunoblots using Image J software, background was subtracted and normalized to loading control. […] Cells were washed with ice-cold PBS and harvested using radio-immunoprecipitation assay (RIPA) lysis buffer containing protease and phosphatase inhibitors (Roche, Basel, Switzerland). Cells were lysed with a probe sonicator for 20 s. Protein quantification was performed using Pierce™ Rapid Gold BCA Protein Assay Kit (Thermo Fisher Scientific, Waltham, MA). Proteins were reduced at 95° C. for 5 mins with NuPAGE™ LDS Sample Buffer (4×) containing NuPAGE™ Sample Reducing Agent (10×). Lysates (40 μg protein/well) were resolved on NuPAGE™ 4-12% Bis-Tris Protein Gels (Invitro-gen) and transferred to polyvinylidene difluoride (PVDF) membranes (Thermo Fisher Scientific, Waltham, MA) using a wet transfer system. […] Images were captured by ChemiDoc Imaging Systems (Bio-Rad, UK) and densitometries were determined by ImageJ.
(In general: A western blot detects proteins with antibodies after separation by electrophoresis.)

This note sets out measurements from patent publication US20230324392A1, “METHODS AND COMPOSITIONS FOR TARGETING CYTOSOLIC DSDNA SIGNALING IN CHROMOSOMALLY UNSTABLE CANCERS” (MEMORIAL SLOAN KETTERING CANCER CENTER, priority 2020, published 2023).

With `O=C(Nc1ccc(I)cc1)c1ccc([N+](=O)[O-])o1` [C-176], the “phosphorylated pools of the NF-κB transcription factors p65 and RelB” value (baseline, B16F10, 4T1, CT26 cells) is recorded as “significant reductions”. The IRF3 phosphorylation result (upon transfection of 20 μg/ml cGAMP) is reported as “suppressed”.
